Source: patent US12077503B2, “Substituted cyclic amides and their use as herbicides” (FMC CORPORATION, priority 2015, dated 2024)

Experiments:
Format in all cases: in vivo
[1] = test system: sedge, umbrella (small-flower umbrella sedge, Cyperus difformis); experiment: Test B flooded paddy test; settings: Cyperus difformis, 250 g ai/ha, Flood; 0 to 100 scale where 0 is no effect and 100 is complete control; read-out: Sedge, Umbrella plant response rating
In short: (§1)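 Flooding to 3 cm over soil accompanied treatment, which consisted of adding compound to the standing water around 2-leaf plants; depth was then maintained. Visual assessment versus controls followed at 13 to 15 d (scale 0–100, 0 meaning no effect).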

[2] = test system: ducksalad (Heteranthera limosa); experiment: Test B flooded paddy test; settings: Heteranthera limosa, 250 g ai/ha, Flood; 0 to 100 scale where 0 is no effect and 100 is complete control; read-out: Ducksalad plant response rating
In short: as §1

rice (Oryra sativa) = experiment: Test B flooded paddy test; settings: Oryza sativa, 250 g ai/ha, Flood; 0 to 100 scale where 0 is no effect and 100 is complete control; read-out: Rice plant response rating
In short: as §1

[3] = test system: barnyardgrass (Echinochloa crus-galli); experiment: Test B flooded paddy test; settings: Echinochloa crus-galli, 250 g ai/ha, Flood; 0 to 100 scale where 0 is no effect and 100 is complete control; read-out: Barnyardgrass plant response rating
In short: as §1

[4] = test system: ryegrass, Italian (Italian ryegrass, Lolium multiflorum); experiment: Test A postemergence; settings: Lolium multiflorum, post-emergence, 240 h, postemergence; for pest or weed control at 125 g/ha: 125 g ai/ha, visual injury vs untreated controls after approx. 10 d, 0 = no effect, 100 = complete control, read-out: Ryegrass, Italian plant response rating (0 to 100 scale); for pest or weed control at 500 g/ha: 500 g ai/ha, 0 to 100 scale, 0 is no effect, 100 is complete control, read-out: Ryegrass, Italian plant response rating
In short: (§2)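 In a loam soil and sand blend, planted seeds got a preemergence directed soil spray, and young plants at the one- to two-leaf stage, 2–10 cm high, got a postemergence application; ~10 d greenhouse hold; injury rated visually, 0 = none, 100 = complete control.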

[5] = test system: blackgrass (Alopecurus myosuroides); experiment: Test A postemergence; settings: Alopecurus myosuroides, post-emergence, 240 h, postemergence; for pest or weed control at 125 g/ha: 125 g ai/ha, visual injury vs untreated controls after approx. 10 d, 0 = no effect, 100 = complete control, read-out: Blackgrass plant response rating (0 to 100 scale); for pest or weed control at 500 g/ha: 500 g ai/ha, 0 to 100 scale, 0 is no effect, 100 is complete control, read-out: Blackgrass plant response rating
In short: as §2

[6] = test system: ragweed (common ragweed, Ambrosia elatior); experiment: Test A postemergence; settings: Ambrosia artemisiifolia, post-emergence, 240 h, postemergence; for pest or weed control at 125 g/ha: 125 g ai/ha, visual injury vs untreated controls after approx. 10 d, 0 = no effect, 100 = complete control, read-out: Ragweed plant response rating (0 to 100 scale); for pest or weed control at 500 g/ha: 500 g ai/ha, 0 to 100 scale, 0 is no effect, 100 is complete control, read-out: Ragweed plant response rating
In short: as §2

[7] = test system: wheat (Triticum aestivum); experiment: Test A postemergence; settings: Triticum aestivum, post-emergence, 240 h, postemergence; for plant injury at 125 g/ha: 125 g ai/ha, visual injury vs untreated controls after approx. 10 d, 0 = no effect, 100 = complete control, read-out: Wheat plant response rating (0 to 100 scale); for plant injury at 500 g/ha: 500 g ai/ha, 0 to 100 scale, 0 is no effect, 100 is complete control, read-out: Wheat plant response rating
In short: as §2

[8] = test system: ryegrass, Italian (Italian ryegrass, Lolium multiflorum); experiment: Test A preemergence; settings: Lolium multiflorum, pre-emergence, 240 h, preemergence, 0 to 100 scale where 0 is no effect and 100 is complete control, read-out: Ryegrass, Italian plant response rating; for pest or weed control at 125 g/ha: 125 g ai/ha, visual injury rating, approximately 10 d; for pest or weed control at 500 g/ha: 500 g ai/ha
In short: as §2

[9] = test system: giant foxtail (Setaria faberii); experiment: Test A preemergence; settings: Setaria faberi, pre-emergence, 240 h, preemergence, 0 to 100 scale where 0 is no effect and 100 is complete control, read-out: Foxtail, Giant plant response rating; for pest or weed control at 125 g/ha: 125 g ai/ha, visual injury rating, approximately 10 d; for pest or weed control at 500 g/ha: 500 g ai/ha
In short: as §2

[10] = test system: ragweed (common ragweed, Ambrosia elatior); experiment: Test A preemergence; settings: Ambrosia artemisiifolia, pre-emergence, 240 h, preemergence, 0 to 100 scale where 0 is no effect and 100 is complete control, read-out: Ragweed plant response rating; for pest or weed control at 125 g/ha: 125 g ai/ha, visual injury rating, approximately 10 d; for pest or weed control at 500 g/ha: 500 g ai/ha
In short: as §2

Kochia (Kochia scoparia) = experiment: Test A preemergence; settings: Bassia scoparia, pre-emergence, 240 h, preemergence, 0 to 100 scale where 0 is no effect and 100 is complete control, read-out: Kochia plant response rating; for pest or weed control at 125 g/ha: 125 g ai/ha, visual injury rating, approximately 10 d; for pest or weed control at 500 g/ha: 500 g ai/ha
In short: as §2

[11] = test system: barnyardgrass (Echinochloa crus-galli); experiment: Test A preemergence; settings: Echinochloa crus-galli, pre-emergence, 240 h, preemergence, 0 to 100 scale where 0 is no effect and 100 is complete control, read-out: Barnyardgrass plant response rating; for pest or weed control at 125 g/ha: 125 g ai/ha, visual injury rating, approximately 10 d; for pest or weed control at 500 g/ha: 500 g ai/ha
In short: as §2

[12] = test system: pigweed (Amaranthus retroflexus); experiment: Test A preemergence; settings: Amaranthus retroflexus, pre-emergence, 240 h, preemergence, 0 to 100 scale where 0 is no effect and 100 is complete control, read-out: Pigweed plant response rating; for pest or weed control at 125 g/ha: 125 g ai/ha, visual injury rating, approximately 10 d; for pest or weed control at 500 g/ha: 500 g ai/ha

Row | SMILES | pest or weed control at 250 g/ha [1] [%] | pest or weed control at 250 g/ha [2] [%] | pest or weed control at 250 g/ha (rice (Oryra sativa)) [%] | pest or weed control at 250 g/ha [3] [%] | pest or weed control at 125 g/ha [4] [%] | pest or weed control at 500 g/ha [4] [%] | pest or weed control at 125 g/ha [5] [%] | pest or weed control at 500 g/ha [5] [%] | pest or weed control at 125 g/ha [6] [%] | pest or weed control at 500 g/ha [6] [%] | plant injury at 125 g/ha [7] [%] | pest or weed control at 125 g/ha [8] [%] | pest or weed control at 500 g/ha [8] [%] | pest or weed control at 125 g/ha [9] [%] | pest or weed control at 500 g/ha [9] [%] | pest or weed control at 125 g/ha [10] [%] | pest or weed control at 500 g/ha [10] [%] | pest or weed control at 125 g/ha (Kochia (Kochia scoparia)) [%] | pest or weed control at 500 g/ha (Kochia (Kochia scoparia)) [%] | pest or weed control at 125 g/ha [11] [%] | further results
1 | Cc1ccc([C@H]2CCN(C)C(=O)[C@@H]2C(=O)Nc2ccccc2C(F)(F)F)cc1 [Compound 1219] | 40 | 60 | 0 | 0 | 0 | 20 | 0 | 0 | 0 | 20 | 0 | 0 | 0 | 80 | 90 | 0 | 0 | 0 | 0 | 70 | plant injury at 500 g/ha [7]: 0%; pest or weed control at 500 g/ha [11]: 90%; pest or weed control at 125 g/ha [12]: 0%; pest or weed control at 500 g/ha [12]: 0%
2 | Cc1ccc([C@H]2CCN(C)C(=O)[C@@H]2C(=O)Nc2cccc(Cl)c2F)cc1 [Compound 1223] | 0 | 90 | 30 | 80 | 20 | 60 | 30 | 50 | 0 | 20 | 0 | 0 | 0 | 90 | 90 | 0 | 20 | 0 | 20 | 90 | plant injury at 500 g/ha [7]: 30%; pest or weed control at 500 g/ha [11]: 90%; pest or weed control at 125 g/ha [12]: 0%; pest or weed control at 500 g/ha [12]: 0%
3 | Cc1cccc([C@H]2CN(C)C(=O)[C@@H]2C(=O)Nc2ccc(F)c(F)c2F)c1 [Compound 1231] | 0 | 100 | 0 | 85 | 40 | 50 | 0 | 40 | 0 | 30 | 50 | 40 | 90 | 90 | 90 | 30 | 60 | 70 | 90 | 90 | pest or weed control at 500 g/ha [11]: 90%; pest or weed control at 125 g/ha [12]: 40%; pest or weed control at 500 g/ha [12]: 70%
4 | Cc1cccc([C@H]2CN(C)C(=O)[C@@H]2C(=O)Nc2cccc(F)c2C)c1 [Compound 1233] | 0 | 100 | 15 | 80 | 40 | 50 | 0 | 40 | 0 | 30 | 40 | 40 | 70 | 90 | 90 | 30 | 50 | 70 | 70 | 90 | pest or weed control at 500 g/ha [11]: 90%; pest or weed control at 125 g/ha [12]: 40%; pest or weed control at 500 g/ha [12]: 40%
